A short description of this data set: Critical water activity of solid forms, samples tested by powder X-ray diffraction. Type of data set: physicochemical. The source says:
Critical water activity is a phase boundary above which a hydrate is a stable form. […] Values of aw. correspond to percent humidity, where the percent humidity is described as 100 x aw. Thus 0.1 aw corresponds to 10% humidity, 0.2 aw corresponds to 20% humidity, and so on. The claimed polymorphic forms of Compound 1 mono-hydrochloride interconvert between Form 1 and Form 2 at a critical water activity of between 0.60 and 0.65 (corresponding to a relative humidity of between 60% and 65%). The critical water activity of the free base form of Compound 1 is between 0.2 and 0.3 (corresponding to a relative humidity between 20% and 30%). It is noted that manufacturing processes are routinely run at relative humidities that exceed 30% relative humidity, but manufacturing processes run at relative humidities of >60% are unusual. Samples were tested using powder X-ray diffraction. Analysis was conducted using a Bruker AXS D8 Endeavor diffractometer equipped with a Cu radiation source. The divergence slit was set at 6 mm continuous illumination. Diffracted radiation was detected by a PSD-Lynx Eye detector, with the detector PSD opening set at 4.104 degrees. The X-ray tube voltage and amperage were set to 40 kV and 40 mA respectively. Data was collected in the Theta-Theta goniometer at the Cu wavelength from 3.0 to 40.0 degrees 2-Theta using a step size of 0.020 degrees and a step time of 0.3 second. Samples were prepared by placing them in a silicon low background sample holder and rotated during collection. Data were collected using Bruker DIFFRAC Plus software and analysis was performed by EVA diffract plus software.

For the compound `CC(C)c1cnc(-c2cc(Cl)ccc2F)cc1Nc1ccncc1C(=O)NC(CO)CO` [Compound 1, Free Base, 4-(2-(5-chloro-2-fluorophenyl)-5-isopropylpyridin-4-ylamino)-N-(1,3-dihydroxypropan-2-yl)nicotinamide], the “PXRD Result (solid form)” value is, setting by setting: (Water Activity at Room Temperature 0.1 aw) “free base anhydrous”; (Water Activity at Room Temperature 0.2 aw) “free base anhydrous”; (Water Activity at Room Temperature 0.3 aw) “free base monohydrate”; (Water Activity at Room Temperature 0.5 aw) “free base monohydrate”; (Water Activity at Room Temperature 1.0 Aw) “free base monohydrate”.

As to `CC(C)c1cnc(-c2cc(Cl)ccc2F)cc1Nc1ccncc1C(=O)NC(CO)CO.Cl` [Compound 1, mono-HCl salt, 4-(2-(5-chloro-2-fluorophenyl)-5-isopropylpyridin-4-ylamino)-N-(1,3-dihydroxypropan-2-yl)nicotinamide mono hydrochloride], the “PXRD Result (solid form)” value is “Form 1” (Water Activity at Room Temperature 0.60 aw); “Form 2” (Water Activity at Room Temperature 0.65 aw); “Form 2” (Water Activity at Room Temperature 0.70 aw); “Form 2” (Water Activity at Room Temperature 0.75 aw); “Form 2” (Water Activity at Room Temperature 0.80 aw).

These data come from patent publication US20200199104A1, “Novel Polymorphic Forms of a TGFBeta Inhibitor” (PFIZER INC., priority 2018, published 2020).
